Measured values published in patent publication US9976142B2, “Targeting molecule and a use thereof” (Nitto Denko Corporation, priority 2014, dated 2018).
Square brackets hold non-standard residues; d marks the D form. Ends that are not written are not given here.

Test system: rat hepatic stellate cells (HSCs)
Assay: siRNA introduction into rat hepatic stellate cells with targeting molecule/LipoTrust/siRNA lipoplex; HSP47 expression by quantitative PCR
Assay type: cell-based
Conditions: siRNA 11.5 μg/ml; for HSP47 expression rate (%): FIG. 2, HSP47 relative to GAPDH, untreated cell = 100; for extent of the suppression of the expression of HSP47 gene, compared with RBP Loop 1: FIG. 3; for extent of the suppression of the expression of HSP47 gene, compared with RBP Loop 1 / expression rate of HSP47 gene: peptide 7.7 μM; for expression rate of HSP47 gene: FIG. 5; for suppression of HSP47 expression: peptide stock solutions 1.1-10 mM
Method: LipoTrust™ SR was dissolved in nuclease-free water (Ambion, Cat. No. AM9937) at a concentration of 1 mM of the cationic lipid. 10 μl of this liposome solution was placed in an Eppendorf tube, to which added 1 μl of the stock solution of each peptide above dissolved in DMSO at predetermined concentration (1.1 mM, 1.25 mM, 2.5 mM, 3.4 mM, 5 mM or 10 mM for experiments whose results are shown in FIG. 1; 90 mM for experiments whose results are shown in FIG. 2) or the stock solution of vitamin A above, and the mixture was vortexed for 15 seconds. To this mixture, 1.5 μl of the above siRNA stock solution was added and mixed, then 17.5 μl of 5% glucose aq. solution (OTSUKA GLUCOSE INJECTION 5%, Otsuka Pharmaceutical Co., Ltd.) was added and mixed. Thus obtained solution of liposome-peptide (or vitamin A)-siRNA complex (lipoplex) was left still under shade for 15 min at room temperature. Also, a mixture of the peptide and siRNA without LipoTrust™ SR was prepared as a control.
Two days before the siRNA introduction, hepatic stellate cells (HSCs) prepared from a rat liver according to the method of Schaefer et al. (Schaefer et al., Hepatology. 1987 July-August; 7(4):680-7) were inoculated uniformly onto a 6-well plate at a density of 0.2×10^5/well and cultured in a Dulbecco's modified Eagle's medium (D-MEM, Sigma Aldrich, Cat. No. D6546, hereinbelow referred to as “culture medium”) containing 10% fetal bovine serum (Thermo HyClone, Cat. No. SH30070.03), 2% L-glutamine (Sigma Aldrich, Cat. No. G7513) and 1% penicillin-streptomycin (Sigma Aldrich, Cat. No. G1146).
The culture medium was removed, 900 μl of fresh culture medium was added to each well, and then this was incubated for at least 30 minutes at 37° C. To 30 μl of each lipoplex solution obtained in Example 1, 100 μl of 5% glucose solution was added to make a mixed solution of 130 μl, and 100 μl of said mixture was added to corresponding well. The final concentration of the siRNA at this time was 11.5 μg/ml. After incubating at 37° C., in 5% CO2 for 30 minutes, the medium comprising the lipoplex solution was removed and substituted with the culture medium, and this was cultured under normal condition for 24-36 hours.
Total RNA extraction of each sample was carried out using RNeasy Mini kit (Qiagen). Firstly, the culture medium was removed, and 350 μl/well each of RLT/2ME solution which was prepared in advance by mixing RLT solution attached to RNeasy Mini kit with 1% (v/v) 2-mercaptoethanol (2ME, Wako) was dispensed into each well. Total volume of the cell lysate was homogenized with QIAshredder (Qiagen), centrifuged at 4° C. and 12000 rpm for 2 min, and then total RNA was extracted according to the manufacturer's instruction. The obtained RNA was quantified using NanoDrop 2000 (Thermo Fisher Scientific), and cDNA was synthesized by RT-PCR. 20 μl total volume/tube of the reaction solution consisting of 4 μl of the reverse transcriptase mix (Super Script VILO Master Mix, Invitrogen, 11755-250) and 16 μl of total RNA of each sample (containing 100-500 ng or more RNA) was reacted at 25° C. for 5 min, at 42° C. for 60 min, then at 85° C. for 5 min, respectively, and subsequently stored at 4° C.
The suppression of HSP47 expression was analyzed by quantitative PCR. As a standard template, the untreated cell sample was used in 10-fold dilution series (the stock solution, 10- and 100-fold dilutions). To each well of MicroAmp (Optical 96-well Reaction Plate, Applied Biosystems, Cat. No. 4306737) added a 48 μl premix consisting of 22 μl of sterile water, 25 μl of Power SYBR® Green (Applied Biosystems, Cat. No. 4367669) and 1 μl of primer mix. The primer mix comprises 50 μM each of the primer set against HSP47 or GAPDH, an internal standard gene, as shown below:
To the corresponding well, 2 μl of the template cDNA obtained from each sample was added to make a total volume of 50 μl. […]

[1] = each peptide at final concentration 69.2 μM, smaller value = greater suppression

Compound: CC1=C(/C=C/C(C)=C/C=C/C(C)=C/CO)C(C)(C)CCC1 [VA, all-trans-retinol, reference compound]
- HSP47 expression rate (%) (VA at final concentration 7.7 μM): 46.8%

Compound: AKDDPEGLFLQKNI (Variant peptide D3K12) [Mutant peptide 3]
- extent of the suppression of the expression of HSP47 gene, compared with RBP Loop 1: lower

Compound: AKDKPEGLFLQDNI (Variant peptide D3K4) [Mutant peptide 2]
- extent of the suppression of the expression of HSP47 gene, compared with RBP Loop 1: lower

Compound: AKEDPKGLFLQDNI (Variant peptide E3K6) [Mutant peptide 1]
- extent of the suppression of the expression of HSP47 gene, compared with RBP Loop 1: lower

Compound: AKFQKLEPGDDLNI (Scramble peptide) [scrambled peptide, negative control, reference compound]
- expression rate of HSP47 gene: almost the same as the result in the group using no targeting molecule

Compound: AKGRVRLLNNWDVCA (Synthetic RBP loop 2)
- suppression of HSP47 expression (FIG. 1): concentration-dependent suppression of HSP47 expression

Compound: AKKDPEGLFLQD (Peptide No. 10-2)
- HSP47 expression rate (%) [1]: 48.5%

Compound: AKKDPEGLFLQDN (Peptide No. 10-1)
- HSP47 expression rate (%) [1]: 39.3%

Compound: AKKDPEGLFLQDNI (Synthetic RBP loop 1)
- suppression of HSP47 expression (FIG. 1): concentration-dependent suppression of HSP47 expression
- suppression rate by the complex, compared with vitamin A (FIG. 1): comparable to that by vitamin A
- HSP47 expression rate (%) [1]: 49.0%
- expression rate of HSP47 gene: significantly decreased

Compound: KDPEGLFLQD (Peptide No. 10)
- HSP47 expression rate (%) [1]: 57.2%

Compound: KDPEGLFLQDN (Peptide No. 10-6)
- HSP47 expression rate (%) [1]: 44.3%

Compound: KDPEGLFLQDNI (Peptide No. 10-4)
- HSP47 expression rate (%) [1]: 42.9%

Compound: KKDPEGLFLQD (Peptide No. 10-5)
- HSP47 expression rate (%) [1]: 40.4%

Compound: KKDPEGLFLQDNI (Peptide No. 10-3)
- HSP47 expression rate (%) [1]: 31.2%

Compound: d-INDQLFLGEPDKKA-amide ([dI][dN][dD][dQ][dL][dF][dL]G[dE][dP][dD][dK][dK][dA]-NH2; N-terminus assumed; SMILES CC[C@@H](C)[C@@H](N)C(=O)N[C@H](CC(N)=O)C(=O)N[C@H](CC(=O)O)C(=O)N[C@H](CCC(N)=O)C(=O)N[C@H](CC(C)C)C(=O)N[C@H](Cc1ccccc1)C(=O)N[C@H](CC(C)C)C(=O)NCC(=O)N[C@H](CCC(=O)O)C(=O)N1CCC[C@@H]1C(=O)N[C@H](CC(=O)O)C(=O)N[C@H](CCCCN)C(=O)N[C@H](CCCCN)C(=O)N[C@H](C)C(N)=O) [retro-inverso peptide]
- targetability (suppression of HSP47) (FIG. 4, peptide 23.1 μM): almost the same targetability as that of RBP Loop 1
